Experimental data published in US8168592B2 (Amgen Inc., priority 2005, dated 2012).
Entries after “also recorded” stand apart in the source; their conditions may differ. Blank lines part the entries; values can stand above or below the compound they belong to. PEG = not defined here

How the values were obtained:
[1] = target: T1, CGRP1 receptor (Rattus norvegicus, UniProt Q63118+Q9JJ74); test: laser Doppler blood flowmetry assay (hαCGRP-induced skin blood flow); assay type: in vivo; conditions: i.v., pre-treatment 5 minutes
T1 construct: from tissue; host or cells: living anaesthetised rat, abdominal skin
T1 sequence (Q63118 24-464): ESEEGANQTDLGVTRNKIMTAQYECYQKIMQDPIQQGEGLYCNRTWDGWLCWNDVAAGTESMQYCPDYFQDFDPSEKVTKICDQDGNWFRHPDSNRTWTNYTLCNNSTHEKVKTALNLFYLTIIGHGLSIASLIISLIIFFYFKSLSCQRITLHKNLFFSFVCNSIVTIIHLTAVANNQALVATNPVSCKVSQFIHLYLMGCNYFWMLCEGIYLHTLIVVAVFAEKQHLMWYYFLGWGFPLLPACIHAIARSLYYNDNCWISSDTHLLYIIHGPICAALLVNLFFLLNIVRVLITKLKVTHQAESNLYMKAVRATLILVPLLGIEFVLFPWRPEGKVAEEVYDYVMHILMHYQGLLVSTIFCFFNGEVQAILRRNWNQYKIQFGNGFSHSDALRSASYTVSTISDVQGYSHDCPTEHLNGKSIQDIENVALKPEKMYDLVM
T1 sequence (Q9JJ74 27-148): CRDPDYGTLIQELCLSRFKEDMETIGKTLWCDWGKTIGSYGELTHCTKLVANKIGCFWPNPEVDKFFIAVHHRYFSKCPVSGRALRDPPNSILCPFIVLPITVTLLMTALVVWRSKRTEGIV
Description: Methods. An automated laser Doppler blood flowmetry device is used (MoorLDI®; Moor Instrument, Devon, UK). The device was turned on prior to the start of experiments and allowed to warm up for 20 minutes. Blood flow data (in FLUX) were read from software records (see below).
For each rat, the experimental procedure was performed within a single day and was each rat was sacrificed on the same day immediately after the experiment was over. On an experiment day, each rat was weighed and administered 1 ml/kg (intramuscular injection in right leg) of an anesthetic cocktail consisting of Ketamine, Xylazine and PBS (5:3:2). […] A small dot was placed near the center of the abdomen using a marker. The animal was then ready for the experiment.
Approximately 20 min after the injection of the anesthetic cocktail, baseline blood flow readings were collected for each animal. Each rat was placed under the laser Doppler scanning device, matching the laser with the marker dot on the abdomen. Using the device's software package, the device was activated and the surface of the abdomen was scanned for 1 min with the laser. The scan area was 4 cm×4 cm. […]
In some cases, plasma IC50 values were calculated by performing least squares linear regression on log plasma concentration values (nM) vs. % change in blood flow values calculated for individual rats.

[2] = solubility in aqueous conjugation buffers; assay type: physicochemical
Description: Co-solvent mediated conjugation of vehicle to CGRP peptide antagonists. […] In an attempt to better solubilize these less soluble peptides during the conjugation reaction, and thereby improve conjugate yields, a variety of alcohol co-solvents were tested in the conjugation reaction.

[3] = in vitro stability in 10% human plasma, LC-MS/MS; assay type: in vitro ADME; conditions: room temperature, 100 ng/ml
Description: Consequently, the stability of select, non-PEGylated analogs was evaluated in vitro in the presence of 10% rat or human plasma. Briefly, samples of each peptide were diluted to 100 ng/ml into PBS containing 10% of rat or human plasma. Each sample was then incubated at room temperature and analyzed by LC-MS/MS to quantitate the intact peptide remaining at select time points over 6 hours.

[4] = in vitro stability in 5% mouse plasma, sandwich ELISA
Description: (§1) Peptide samples at 2 mg/ml in PBS were spiked with 5% mouse plasma and analyzed by sandwich ELISA (as described in Example 3 herein above) over 48 hours at room temperature. Peptide integrity was determined by sandwich ELISA requiring intact peptide termini.

[5] = rat plasma (10% rat plasma in the legend of FIG. 2); conditions: room temperature, up to 1 hour
[6] = 100% human plasma; conditions: room temperature, up to 4 hour
[7] = 100% Cynomolgus monkey plasma; conditions: room temperature, up to 4 hour
[8] = monkey plasma during 30 minutes of intravenous infusion; conditions: Cynomolgus monkeys (Macaca fascicularis), up to 20 min during the infusion
[9] = mouse
Description: as §1

[10] = target: T2, CGRP1 receptor (Homo sapiens, UniProt O60894+Q16602); test: in vitro CGRP1 receptor mediated cAMP assay in SK-N-MC cells; assay type: cell-based; conditions: cAMP assay
T2 construct: SK-N-MC cells express CRLR and RAMP1, which form CGRP1 receptor; endogenous in cells; host or cells: SK-N-MC human neuroblastoma cells
T2 sequence (Q16602 23-461): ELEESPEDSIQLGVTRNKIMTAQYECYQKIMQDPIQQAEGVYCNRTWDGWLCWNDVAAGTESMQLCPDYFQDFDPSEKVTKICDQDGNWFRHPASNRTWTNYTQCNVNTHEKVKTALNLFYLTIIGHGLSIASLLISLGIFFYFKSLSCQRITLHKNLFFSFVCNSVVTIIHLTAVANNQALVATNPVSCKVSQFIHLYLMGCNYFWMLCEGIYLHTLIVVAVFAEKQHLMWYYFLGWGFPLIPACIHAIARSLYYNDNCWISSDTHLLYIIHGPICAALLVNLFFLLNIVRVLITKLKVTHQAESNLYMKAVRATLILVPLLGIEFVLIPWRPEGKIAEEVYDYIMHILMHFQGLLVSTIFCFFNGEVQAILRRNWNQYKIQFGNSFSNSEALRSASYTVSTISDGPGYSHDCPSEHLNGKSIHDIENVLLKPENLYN
T2 sequence (O60894 27-148): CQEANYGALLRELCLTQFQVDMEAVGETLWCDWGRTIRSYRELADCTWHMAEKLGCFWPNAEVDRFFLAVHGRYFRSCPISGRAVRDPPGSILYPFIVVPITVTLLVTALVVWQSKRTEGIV
Procedure, shortened: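 Intracellular cAMP served as the Gs-coupled CGRP1 readout in endogenously expressing SK-N-MC cells. After a 15-minute room-temperature step in plasma-free medium, cell lysates (30 minutes, 37° C) went into a competitive ELISA with a cAMP-AP conjugate and anti-cAMP antibody for 1 hour, then a 30-minute substrate enhancer step before reading.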

Compound: CC(=O)N[C@@H](Cc1c[nH]c2ccccc12)C(=O)N[C@H](C(=O)N[C@H](C(=O)N[C@@H](Cc1c[nH]cn1)C(=O)N[C@@H](CCCNC(N)=O)C(=O)N[C@@H](CC(C)C)C(=O)N[C@@H](C)C(=O)NCC(=O)N[C@@H](CC(C)C)C(=O)N[C@@H](CC(C)C)C(=O)N[C@@H](CO)C(=O)N[C@@H](CCCNC(N)=O)C(=O)N[C@@H](CO)C(=O)NCC(=O)NCC(=O)N[C@H](C(=O)N[C@H](C(=O)N[C@@H](CCCCNC(=N)N)C(=O)N[C@@H](CCCCN)C(=O)N[C@@H](CC(N)=O)C(=O)N[C@@H](Cc1ccccc1)C(=O)N[C@H](C(=O)N1CCC[C@H]1C(=O)N[C@H](C(=O)N[C@@H](CC(=O)O)C(=O)N[C@H](C(=O)NCC(=O)N1CCC[C@H]1C(=O)N[C@@H](Cc1ccccc1)C(=O)N[C@@H](C)C(=O)N[C@@H](Cc1ccccc1)C(N)=O)C(C)C)[C@@H](C)O)C(C)C)C(C)C)C(C)C)[C@@H](C)O)C(C)C [Compound 739]
Efficacy observed (%) (at highest dose tested) ([1]; 6 mg/kg): 100%

Compound: Ac-WVTHRLAGLLSRSGGVVRKNFVPTDVGPFAF-NH2
cleaved bond [5]: L16-S17, major; also recorded: S17-R18, major; also recorded: R18-S19, major

Compound: SEQ ID NO:15 (Ac-WVTHRLAGLLSRSGGVVRK(PEG)NFVPTDVGPFAF-NH2; reading uncertain)
half-life longer than the non-PEGylated parent peptide [9]: more than 9 fold | improved potency relative to native CGRP(8-37) (SEQ ID NO:1) [10]: about 12 fold | loss in antagonist activity on PEGylation relative to the unconjugated parent peptide [10]: three

Further lines, with some results ahead:

Efficacy observed (%) (at highest dose tested) ([1]; 0.6 mg/kg): 100%
Compound: CC(=O)N[C@@H](Cc1c[nH]c2ccccc12)C(=O)N[C@H](C(=O)N[C@H](C(=O)N[C@@H](Cc1c[nH]cn1)C(=O)N[C@@H](CCCNC(=N)N)C(=O)N[C@@H](CC(C)C)C(=O)N[C@@H](C)C(=O)NCC(=O)N[C@@H](CC(C)C)C(=O)N[C@@H](CC(C)C)C(=O)N[C@@H](CO)C(=O)N[C@@H](CCCNC(=N)N)C(=O)N[C@@H](CO)C(=O)NCC(=O)NCC(=O)N[C@H](C(=O)N[C@H](C(=O)N[C@@H](CCCNC(=N)N)C(=O)N[C@@H](CCCCN)C(=O)N[C@@H](CC(N)=O)C(=O)N[C@@H](Cc1ccccc1)C(=O)N[C@H](C(=O)N1CCC[C@H]1C(=O)N[C@H](C(=O)N[C@@H](CC(=O)O)C(=O)N[C@H](C(=O)NCC(=O)N1CCC[C@H]1C(=O)N[C@@H](Cc1ccccc1)C(=O)N[C@@H](C)C(=O)N[C@@H](Cc1ccccc1)C(N)=O)C(C)C)[C@@H](C)O)C(C)C)C(C)C)C(C)C)[C@@H](C)O)C(C)C [Compound 808]

solubility in words [2]: relatively insoluble
Compound: CC(=O)N[C@@H](Cc1c[nH]c2ccccc12)C(=O)N[C@H](C(=O)N[C@H](C(=O)N[C@@H](Cc1cnc[nH]1)C(=O)N[C@@H](CCCNC(N)=O)C(=O)N[C@@H](CC(C)C)C(=O)N[C@@H](C)C(=O)NCC(=O)N[C@@H](CC(C)C)C(=O)N[C@@H](CC(C)C)C(=O)N[C@@H](CO)C(=O)N[C@@H](CCCNC(N)=O)C(=O)N[C@@H](CO)C(=O)NCC(=O)NCC(=O)N[C@H](C(=O)N[C@H](C(=O)N[C@@H](CCCCNC(=N)N)C(=O)N[C@@H](CCCCN)C(=O)N[C@@H](CC(N)=O)C(=O)N[C@@H](Cc1ccccc1)C(=O)N[C@H](C(=O)N1CCC[C@H]1C(=O)N[C@H](C(=O)N[C@@H](CC(=O)O)C(=O)N[C@H](C(=O)NCC(=O)N1CCC[C@H]1C(=O)N[C@@H](Cc1ccccc1)C(=O)N[C@@H](C)C(=O)N[C@@H](Cc1ccccc1)C(N)=O)C(C)C)[C@@H](C)O)C(C)C)C(C)C)C(C)C)[C@@H](C)O)C(C)C [SEQ ID NO:739]

% Remaining ([3]; 0 h): 100.0% | remaining at 0.17 h, 100 ng/ml ([3]; 0.17 h): 60.3% | remaining at 0.5 h, 100 ng/ml ([3]; 0.5 h): 13.8% | remaining at 1 h, 100 ng/ml ([3]; 1 h): 4.9% | remaining at 2 h, 100 ng/ml ([3]; 2 h): 0% | remaining at 3 h, 100 ng/ml ([3]; 3 h): 0% | remaining at 4 h, 100 ng/ml ([3]; 4 h): 0% | remaining at 5 h, 100 ng/ml ([3]; 5 h): 0% | remaining at 6 h, 100 ng/ml ([3]; 6 h): 0% | recovery at 0 h, 2 mg/ml [4]: 112 ± 1.8% | recovery at 4 h, 2 mg/ml [4]: 46.1 ± 60.1% | recovery at 24 h, 2 mg/ml [4]: 2.51 ± 0.573% | recovery at 48 h, 2 mg/ml [4]: 1.81 ± 0.754%
Compound: CC(=O)N[C@@H](Cc1c[nH]c2ccccc12)C(=O)N[C@H](C(=O)N[C@H](C(=O)N[C@@H](Cc1cnc[nH]1)C(=O)N[C@@H](CCCN=C(N)N)C(=O)N[C@@H](CC(C)C)C(=O)N[C@@H](C)C(=O)NCC(=O)N[C@@H](CC(C)C)C(=O)N[C@@H](CC(C)C)C(=O)N[C@@H](CO)C(=O)N[C@@H](CCCN=C(N)N)C(=O)N[C@@H](CO)C(=O)NCC(=O)NCC(=O)N[C@H](C(=O)N[C@H](C(=O)N[C@@H](CCCN=C(N)N)C(=O)N[C@@H](CCCCN)C(=O)N[C@@H](CC(N)=O)C(=O)N[C@@H](Cc1ccccc1)C(=O)N[C@H](C(=O)N1CCC[C@H]1C(=O)N[C@H](C(=O)N[C@@H](CC(=O)O)C(=O)N[C@H](C(=O)NCC(=O)N1CCC[C@H]1C(=O)N[C@@H](Cc1ccccc1)C(=O)N[C@@H](C)C(=O)N[C@@H](Cc1ccccc1)C(N)=O)C(C)C)[C@@H](C)O)C(C)C)C(C)C)C(C)C)[C@@H](C)O)C(C)C [SEQ ID NO: 7]

solubility in words [2]: relatively soluble
Compound: CC(=O)N[C@@H](Cc1c[nH]c2ccccc12)C(=O)N[C@H](C(=O)N[C@H](C(=O)N[C@@H](Cc1cnc[nH]1)C(=O)N[C@@H](CCCN=C(N)N)C(=O)N[C@@H](CC(C)C)C(=O)N[C@@H](C)C(=O)NCC(=O)N[C@@H](CC(C)C)C(=O)N[C@@H](CC(C)C)C(=O)N[C@@H](CO)C(=O)N[C@@H](CCCN=C(N)N)C(=O)N[C@@H](CO)C(=O)NCC(=O)NCC(=O)N[C@H](C(=O)N[C@H](C(=O)N[C@@H](CCCN=C(N)N)C(=O)N[C@@H](CCCCN)C(=O)N[C@@H](CC(N)=O)C(=O)N[C@@H](Cc1ccccc1)C(=O)N[C@H](C(=O)N1CCC[C@H]1C(=O)N[C@H](C(=O)N[C@@H](CC(=O)O)C(=O)N[C@H](C(=O)NCC(=O)N1CCC[C@H]1C(=O)N[C@@H](Cc1ccccc1)C(=O)N[C@@H](C)C(=O)N[C@@H](Cc1ccccc1)C(N)=O)C(C)C)[C@@H](C)O)C(C)C)C(C)C)C(C)C)[C@@H](C)O)C(C)C [SEQ. ID NO: 7]

fragment found [6]: W7-hR24, major | fragment found [7]: W7-K25, major
Compound: Ac-WVTH[Cit]LAGLLS[Cit]SGGVV[hArg]KNFVPTDVG[Oic]FAF-NH2
fragment found [8]: W7-T9, 20 min during the infusion; also recorded: T30-A36, 20 min during the infusion; also recorded: W7-N26, 20 min during the infusion; also recorded: T30-F37, 20 min during the infusion; also recorded: W7-hR24, 20 min during the infusion
